Laboratory results: ChEMBL document CHEMBL1155614, “CR377, a new pentaketide antifungal agent isolated from an endophytic fungus” (2000)
Activity calls are given as the source filed them. No cut-off for these calls is given here.

How the values were obtained:
Candida albicans [1] = test: Antimicrobial activity against Candida albicans wisconsin at 30 ug by agar diffusion method; format: functional
Candida albicans [2] = test: Antimicrobial activity against Candida albicans 109 at 30 ug by agar diffusion method; format: functional
Saccharomyces cerevisiae = test: Antimicrobial activity against Saccharomyces cerevisiae at 30 ug by agar diffusion method; format: functional, organism-based

Molecule	inhibition zone (IZ) (Candida albicans [1]) [mm]	inhibition zone (IZ) (Candida albicans [2]) [mm]	inhibition zone (IZ) (Saccharomyces cerevisiae) [mm]	zone of inhibition at 30 µg/disc (Candida albicans [1]; read-out: IZ) [mm]	zone of inhibition at 30 µg/disc (Candida albicans [2]; read-out: IZ) [mm]	Activity (Saccharomyces cerevisiae)
NYSTATIN	19	22	21			
C=C1C(O)=C(C(=O)C(C)CC)C(=O)OC1C (stereo unspecified)				20	24	inactive
